From PubChem BioAssay AID192 (DTP/NCI, 2004) come the findings set out here.

SMILES strings stand for the structures. Inconclusive results and toxic doses are left out.

This test deals with BDF1 mice, B16 melanoma ip, median survival T/C. Description: NCI In Vivo Anticancer Drug Screen. Data for tumor model B16 Melanoma (intraperitoneal) in B6D2F1 (BDF1) mice. The following applies: endpoint: median survival time, higher = longer survival. The gist of the method: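 Compounds were tested in mice carrying transplantable tumors. Survival or tumor size was recorded, and each value is the treated-group measurement (T) divided by that of the vehicle-treated control group (C).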

Where [1] appears, read: dose: 12.5 mg/kg/injection, schedule: Q01DX009 (ip), vehicle: Klucel (hydroxypropylcellulose) (HPC).
Setting [2] is: dose: 25.0 mg/kg/injection, schedule: Q01DX009 (ip), vehicle: Klucel (hydroxypropylcellulose) (HPC).
The mark [3] stands for this setting: dose: 50.0 mg/kg/injection, schedule: Q01DX009 (ip), vehicle: Klucel (hydroxypropylcellulose) (HPC).
Setting [4] is: dose: 25.0 mg/kg/injection, schedule: Q01DX009 (ip), vehicle: saline with Tween-80.
The mark [5] stands for this setting: dose: 50.0 mg/kg/injection, schedule: Q01DX009 (ip), vehicle: saline with Tween-80.
[6] abbreviates: dose: 100.0 mg/kg/injection, schedule: Q01DX009 (ip), vehicle: saline with Tween-80.
[7] abbreviates: dose: 200.0 mg/kg/injection, schedule: Q01DX009 (ip), vehicle: saline with Tween-80.
Where [8] appears, read: dose: 400.0 mg/kg/injection, schedule: Q04DX003 (ip), vehicle: Klucel (hydroxypropylcellulose) (HPC).
Where [9] appears, read: dose: 100.0 mg/kg/injection, schedule: Q01DX009 (ip), vehicle: Klucel (hydroxypropylcellulose) (HPC).
The mark [10] stands for this setting: dose: 200.0 mg/kg/injection, schedule: Q01DX009 (ip), vehicle: Klucel (hydroxypropylcellulose) (HPC).
Setting [11] is: dose: 1.5 mg/kg/injection, schedule: Q01DX009 (ip), vehicle: Klucel (hydroxypropylcellulose) (HPC).
Setting [12] is: dose: 400.0 mg/kg/injection, schedule: Q01DX009 (ip), vehicle: Klucel (hydroxypropylcellulose) (HPC).
The mark [13] stands for this setting: dose: 50.0 mg/kg/injection, schedule: Q01DX009 (ip), vehicle: saline.
The mark [14] stands for this setting: dose: 100.0 mg/kg/injection, schedule: Q01DX009 (ip), vehicle: saline.
Setting [15] is: dose: 400.0 mg/kg/injection, schedule: Q01DX009 (ip), vehicle: saline with Tween-80.

As for `Cc1ccc(C(C)(C)C[P+](C)(c2ccccc2)c2ccccc2)cc1`, the T/C (dose: 6.25 mg/kg/injection, schedule: Q01DX009 (ip), vehicle: Klucel (hydroxypropylcellulose) (HPC)) was 90 % of control; the T/C under setting [1] was 94 % of control; the T/C under setting [2] is 99 % of control; the T/C under setting [3] was 93 % of control.
As for `NC(=S)n1cccn1`, the T/C under setting [4] was 96 % of control, the T/C under setting [5] was 114 % of control and the T/C under setting [6] was 94 % of control.
Consider `O=[N+]([O-])c1ccc(CSc2ncnc3c2ncn3C2OC(CO)C(O)C2O)cc1` (stereo unspecified), for which the T/C reads like this: (dose: 3.13 mg/kg/injection, schedule: Q01DX009 (ip), vehicle: saline with Tween-80) 90 % of control; (dose: 6.25 mg/kg/injection, schedule: Q01DX009 (ip), vehicle: saline with Tween-80) 90 % of control; (dose: 12.5 mg/kg/injection, schedule: Q01DX009 (ip), vehicle: saline with Tween-80) 90 % of control; under setting [4], 86 % of control; under setting [5], 86 % of control; under setting [6], 79 % of control. Also, the T/C under setting [7] was 75 % of control.
In the case of `Cc1noc(/N=C/c2cccc(Cl)c2)c1C`, the T/C is 107 % of control (dose: 175.0 mg/kg/injection, schedule: Q04DX003 (ip), vehicle: Klucel (hydroxypropylcellulose) (HPC)); 116 % of control (dose: 265.0 mg/kg/injection, schedule: Q04DX003 (ip), vehicle: Klucel (hydroxypropylcellulose) (HPC)); 109 % of control under setting [8]; 107 % of control (dose: 600.0 mg/kg/injection, schedule: Q04DX003 (ip), vehicle: Klucel (hydroxypropylcellulose) (HPC)).
In the case of `Brc1nnnn1-c1ccccc1`, the T/C by setting is: under setting [9], 90 % of control; under setting [10], 93 % of control.
As for `C[CH2][Pb]([CH2]C)([CH2]C)[n]1cnc2ccccc21`, the T/C runs as follows: (dose: 0.75 mg/kg/injection, schedule: Q01DX009 (ip), vehicle: Klucel (hydroxypropylcellulose) (HPC)) 95 % of control; under setting [11], 96 % of control.
For the molecule `COc1cccc(C(Cc2ccccc2)NCc2ccccc2)c1` (stereo unspecified), the T/C reads like this: under setting [9], 106 % of control; under setting [10], 100 % of control; under setting [12], 96 % of control.
On the same counts, the results for `CC(=O)[C@H]1CC[C@H]2[C@@H]3C[C@H](C)C4=CC(=O)CC[C@]4(C)[C@H]3C(=O)C[C@]12C` are 107 % of control, 92 % of control and 94 % of control.
Turning to `c1ccc(CN2CCOC2)cc1`, the T/C reads like this: (dose: 12.5 mg/kg/injection, schedule: Q01DX009 (ip), vehicle: saline) 115 % of control; (dose: 25.0 mg/kg/injection, schedule: Q01DX009 (ip), vehicle: saline) 111 % of control; under setting [13], 122 % of control; under setting [14], 111 % of control.
As to `CN(C(N)=O)C1CCCC1`, the T/C by setting is: under setting [6], 114 % of control; under setting [7], 100 % of control; under setting [15], 93 % of control.
With `CCCCCCCCCCCCCCCCCC[N+](C)(C)C` (tested in a mixture with another compound), the T/C is 90 % of control (dose: 0.1 mg/kg/injection, schedule: Q01DX009 (ip), vehicle: saline sonified); 86 % of control (dose: 2.0 mg/kg/injection, schedule: Q01DX009 (ip), vehicle: saline sonified); 86 % of control (dose: 4.0 mg/kg/injection, schedule: Q01DX009 (ip), vehicle: saline sonified).
As to `O=NN1CCNC1=O`, the T/C is 98 % of control under setting [11]; 110 % of control (dose: 3.0 mg/kg/injection, schedule: Q01DX009 (ip), vehicle: Klucel (hydroxypropylcellulose) (HPC)); 101 % of control (dose: 6.0 mg/kg/injection, schedule: Q01DX009 (ip), vehicle: Klucel (hydroxypropylcellulose) (HPC)).
Take `C=CC(=O)NCNC(=O)CCBr`: the T/C is 115 % of control under setting [2], 121 % of control under setting [3] and 123 % of control under setting [9].
On to `CC1(C)N=C(N)N=C(N)N1c1cccc(C#N)c1`, for which the T/C is, setting by setting: (dose: 25.0 mg/kg/injection, schedule: Q01DX005 (ip), vehicle: saline) 95 % of control; (dose: 50.0 mg/kg/injection, schedule: Q01DX005 (ip), vehicle: saline) 100 % of control; (dose: 50.0 mg/kg/injection, schedule: Q04DX003 (ip), vehicle: saline) 115 % of control; (dose: 100.0 mg/kg/injection, schedule: Q01DX005 (ip), vehicle: saline) 104 % of control; (dose: 100.0 mg/kg/injection, schedule: Q04DX003 (ip), vehicle: saline) 93 % of control.
As to `CC(=O)Oc1ccc(/C=N/NC(N)=S)nc1`, the T/C runs as follows: (dose: 9.4 mg/kg/injection, schedule: Q01DX009 (ip), vehicle: saline with Tween-80) 96 % of control; (dose: 18.8 mg/kg/injection, schedule: Q01DX009 (ip), vehicle: saline with Tween-80) 106 % of control; (dose: 37.5 mg/kg/injection, schedule: Q01DX009 (ip), vehicle: saline with Tween-80) 108 % of control; (dose: 75.0 mg/kg/injection, schedule: Q01DX009 (ip), vehicle: saline with Tween-80) 112 % of control; (dose: 150.0 mg/kg/injection, schedule: Q01DX009 (ip), vehicle: saline with Tween-80) 108 % of control.
For `Cc1ccc(N=Nc2c(O)ccc3ccccc23)c(C)c1`, the T/C by setting is: under setting [3], 92 % of control; under setting [12], 150 % of control.
Turning to `O=C1CNC(c2ccccc2)c2cc(Cl)ccc2N1` (stereo unspecified), the T/C is 107 % of control under setting [1]; 97 % of control under setting [2]; 107 % of control under setting [3]; 94 % of control under setting [9]; 102 % of control under setting [10].
As for `CCCCCCCCCCCCCCCCCCNC(=O)Nc1ccccc1CC`, under setting [5], the T/C was 86 % of control.
Turning to `CCCCCCCCC(=O)NCCCOC`, the T/C runs as follows: (dose: 100.0 mg/kg/injection, schedule: Q04DX003 (ip), vehicle: Klucel (hydroxypropylcellulose) (HPC)) 107 % of control; (dose: 200.0 mg/kg/injection, schedule: Q04DX003 (ip), vehicle: Klucel (hydroxypropylcellulose) (HPC)) 101 % of control; under setting [8], 93 % of control.
Regarding `CC1CC(NC(=O)/C=C/C(=O)O)CC(C)(C)C1` (stereo unspecified), the T/C runs as follows: under setting [9], 93 % of control; under setting [10], 95 % of control; under setting [12], 93 % of control.
For `Cc1ccn2ncnc2c1`, the T/C is, setting by setting: under setting [13], 89 % of control; under setting [14], 86 % of control.
Consider `C=C1OC(=O)OC1(C)CC(OC)OC` (stereo unspecified), for which the T/C by setting is: under setting [6], 102 % of control; under setting [7], 113 % of control; under setting [15], 108 % of control.
As to `CC(=O)NS(=O)(=O)c1ccc(NC(=O)c2ccccc2C(=O)O)cc1`, the T/C is 98 % of control under setting [3], 96 % of control under setting [9] and 93 % of control under setting [10].
